The text below walks through data of ChEMBL document CHEMBL3612028, “Design, synthesis, pharmacological evaluation and molecular dynamics of β-amino acids morphan-derivatives as novel ligands for opioid receptors” (Eur J Med Chem, 2015).

A short description of test [1]: Displacement of [3H]-diprenorphine from opioid receptor in rat brain membrane homogenates after 1 hr by liquid scintillation counting. The class given is cell membranes.
The target in test [2] is Mu opioid receptor-like OR2 (Danio rerio, UniProt B8JHS2). The test can be described thus: Displacement of [3H]-diprenorphine from zebrafish mu opioid receptor expressed in HEK293 cells after 1 hr by liquid scintillation counting. The class given is cell-based.
Mu opioid receptor-like OR2, sequence (B8JHS2 whole entry): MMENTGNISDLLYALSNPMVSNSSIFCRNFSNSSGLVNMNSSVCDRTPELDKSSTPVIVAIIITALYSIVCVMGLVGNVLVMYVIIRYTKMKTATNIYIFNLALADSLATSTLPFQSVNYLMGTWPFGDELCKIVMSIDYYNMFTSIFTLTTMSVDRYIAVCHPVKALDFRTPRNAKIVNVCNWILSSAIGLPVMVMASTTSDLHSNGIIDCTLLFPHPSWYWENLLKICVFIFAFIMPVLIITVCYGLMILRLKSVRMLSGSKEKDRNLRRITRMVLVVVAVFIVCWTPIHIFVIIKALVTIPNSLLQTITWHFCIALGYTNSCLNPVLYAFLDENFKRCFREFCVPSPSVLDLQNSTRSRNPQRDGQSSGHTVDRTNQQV

In the case of `O=C(O)[C@@H]1[C@@H]2CCC[C@H]1NCC2`, in test [1], the Ki was above 100 µM. For `COC(=O)[C@@H]1[C@@H]2CCC[C@H]1N(Cc1ccccc1)CC2`, the Ki was 37 µM in test [2] and 14.8 µM in test [1]. The matching figures for `O=C(Oc1ccccc1)[C@@H]1[C@@H]2CCC[C@H]1NCC2`: 32 µM and 10.9 µM.

In the case of `O=C(Oc1cccc(O)c1)[C@@H]1[C@@H]2CCC[C@H]1NCC2`, the Ki in test [2] stood at 9.52 µM; in test [1], 4.04 µM. Take `COC(=O)[C@H](Cc1ccccc1)NC(=O)[C@@H]1[C@@H]2CCC[C@H]1NCC2`: the values for the Ki in test [2] and in test [1] were 78 µM and 14.8 µM, respectively. `O=C(Oc1ccc(O)cc1)[C@@H]1[C@@H]2CCC[C@H]1NCC2`: the Ki came out at 12.7 µM in test [2] and 1.92 µM in test [1]. The matching figures for `COC(=O)[C@@H]1[C@@H]2CCC[C@H]1N(CCc1ccccc1)CC2`: 8.24 µM and 2.69 µM.

On to `COC(=O)[C@@H]1[C@@H]2CCC[C@H]1NCC2`, for which the Ki in test [2] came out at 35.3 µM; in test [1], 17.1 µM. Turning to `COC(=O)[C@@H]1[C@@H]2CCC[C@H]1N(C(=O)[C@@H](N)Cc1ccccc1)CC2`, the Ki in test [2] was found to be 75.8 µM; in test [1], 32.9 µM.
